Values quoted from earlier work in patent publication US12471592B2, “Cytoprotective compositions for short-term cells storage and transportation without cryopreservation and deep freezing” (priority 2021, dated 2025).
Where two headings read alike, the source gives them in different places.

Key:
mouse blastocysts = conditions: for blastocysts survived: 20% vol/vol CPAs for 40 min at room temperature; for blastocysts subsequently developed: 30% vol/vol CPAs for 10 min at room temperature
[1] = test system: vascular endothelial cells; conditions: vitrifying concentrations, 2-4° C. for 9 min
endothelial cells = conditions: reducing concentration from 3.0 M to 2.0 M
[2] = test system: vascular endothelial cells; conditions: for increase of permeability: raising the temperature from 2-4° C. to 22° C.; for Permeability: vascular endothelial cells, 2-4° C.
bacteria = conditions: 33% DMSO for 10 min
fibroblasts = conditions: 1% DMSO, within 5 sec
[3] = test system: Chinese hamster ovary cell lines
Rat retina cells = conditions: 24 hr exposure
mouse morula = conditions: for minimum concentration giving significant reduction of mouse morula survival: 5 min of 25° C. exposure
mouse oocytes = conditions: increasing molarity
[4] = test system: ARPE 19 human retinal pigment epithelial cell line
[5] = cytochrome P450 oxidation system added

## CC(O)CCO (stereo not drawn) [1,3-butanediol]
Mouse blastocysts
  blastocysts survived: 64.2%

## CC(O)C(C)O (stereo not drawn) [BD, 2,3-butanediol]
[1]
  cell survival: 76.3%
Endothelial cells
  factor by which endothelial cell loss was cut: 35
Mouse blastocysts
  blastocysts survived: 8.3%
  blastocysts subsequently developed: 8.7%
[2]
  increase of permeability: 17 fold
  Permeability: 4.1 cm/sec×10^−6

## C[S+](C)[O-] [DMSO, dimethylsulfoxide]
bacteria
  increase in mutagenicity: 10 fold
fibroblasts
  increase of intracellular calcium: two- to six-fold
[3]; [5]
  chromosome damage: not
[3]; without oxidation system
  chromosome damage: No chromosome damage
Rat heart rate
  concentrations giving dose-dependent reduction in rat heart rate: above 0.14 M
[1]
  cell survival: 37.0%
Endothelial cells
  factor by which endothelial cell loss was cut: 3
Mouse blastocysts
  blastocysts survived: 96.7%
  blastocysts subsequently developed: 25.0%
Rat retina cells
  concentration at which apoptosis was exhibited: ≥ 0.1 % vol/vol
[2]
  increase of permeability: 17 fold
  Permeability: 2.4 cm/sec×10^−6
Rat myocardium; at 15° C.
  concentration giving irreversible ultrastructural alterations to rat myocardium: above 2.82 M
Rat myocardium; at 30° C.
  concentration giving irreversible ultrastructural alterations to rat myocardium: above 1.41 M
Mouse morula
  minimum concentration giving significant reduction of mouse morula survival: 5 M

## OCCO [EG, ethylene glycol]
[3]; [5]
  chromosome damage: substantial chromosome damage
[3]; without oxidation system
  chromosome damage: No chromosome damage
[1]
  cell survival: 33.2%
Mouse blastocysts
  blastocysts survived: 95.8%
  blastocysts subsequently developed: 74.6%
[2]
  increase of permeability: nine-fold
  Permeability: 2.0 cm/sec×10^−6
Mouse morula
  minimum concentration giving significant reduction of mouse morula survival: 7 M

## OCC(O)CO [GLY, glycerol]
Mouse blastocysts
  blastocysts survived: 81.7%
Mouse morula
  minimum concentration giving significant reduction of mouse morula survival: 6 M

## CO [METH, methanol]
Fish oocytes
  concentrations resulting in protein damage or proteolysis: above 6 M
Mouse morula; 10 min exposure
  concentration showing reduced mouse morula survival: 6 M

## CC(O)CO (stereo not drawn) [PG, propylene glycol]
[3]; without oxidation system
  chromosome damage: substantial chromosome damage
Mouse oocytes
  formaldehyde increase relative to DMSO or GLY: more than 30 fold
[1]
  cell survival: 63.6%
Mouse blastocysts
  blastocysts survived: 87.5%
  blastocysts subsequently developed: 2.1%
[2]
  increase of permeability: 13 fold
  Permeability: 3.0 cm/sec×10^−6
Mouse zygotes
  concentration impairing the developmental potential of mouse zygotes by decreasing intracellular pH: > 2.5 M
Mouse morula
  minimum concentration giving significant reduction of mouse morula survival: 4 M

## O=c1c(O)c(-c2ccc(O)c(O)c2)oc2cc(O)cc(O)c12 [quercetin]
[4]; compared with the control groups, 300 μM H2O2
  level of ROS: decreased
[4]; pretreated with quercetin (0.80 μM) before exposure to 300 μM H2O2
  cell viability: preserved in quercetin group in a dose dependent manner, particularly at 20 μM
